Measured values taken from patent publication US20220202912A1, “Polypeptides in Preparation of Drugs for Treatment or Prevention of Rheumatoid Arthritis” (priority 2011, published 2022).
Where no end group is shown, it is not given here.

How the values were obtained:
[1] = test system: macrophages (PMA-induced U937 cells); assay: flow cytometry macrophage apoptosis test (AV-FITC/PI); format: cell-based, Human; details: 24 h; Adalimumab 50 μg/mL, mPEG-SC20k-HM-3 13.5 μmol/L
Procedure: Human U937 cells are added to a 6-well plate (1.5×10^5 cells/mL), PMA (25 ng/mL) is added to perform induction for 48 h for differentiation into macrophages, and the macrophages are added to the positive drug Adalimumab group (50 μg/mL), the HM-3 control group (13.5 μmol/L), the mPEG-SC20k-HM-3 group (13.5 μmol/L), isovolumetric PBS is added to the blank group and the model group, and the cells are incubated in a CO2 incubator at 37° C. for 24 h. For the H2O2 group (3%, 20 μL/mL volume) test, hydrogen peroxide is added in the first half hour to normal cells for apoptosis induction control.
1000 g of solution is centrifuged for 5 min, and supernatant is discarded. Washing is performed once with PBS.
The apoptosis is tested on the flow cytometer according to the instructions of the AV-FITC/PI apoptosis kit.

[2] = test system: macrophages (PMA-induced U937 cells); assay: Western blot of protein expression in macrophages (PMA-induced U937 cells); format: cell-based, human
Procedure: 3.1 U937 cells are added to a 6-well plate (1.5×10^5 cells/mL), PMA (25 ng/mL) is used for induction for 48 h, and the cells adhere and differentiate into macrophages. Positive drug Adalimumab (25 μg/mL, 50 μg/mL, 100 μg/mL, 200 μg/mL, 400 μg/mL), Avastin (25 μg/mL, 50 μg/mL) are added, the final concentrations of mPEG-SC20k-HM-3 are 2.25, 4.5, 9.0, 13.5, 18.0, 36 μmol/L, and isovolumetric PBS is added to the blank group and the model group. The cells are incubated in a CO2 incubator at 37° C. for 24 or 48 h. Rat synovial cells are induced with LPS for 24 h and then mPEG-SC20k-HM-3 is administrated to final concentrations of 2.25, 4.5, 9.0, 13.5, 18.0 μmol/L, and the cells are incubated in a CO2 incubator at 37° C. for 48 h.
3.3 A protein extract solution is added at 20 μL/1×10^5 cells, and the cells are pipetted and dispersed, and stand at 4° C. for 30 min to lyse the cells.
3.4 1/4 volume of 5×protein loading buffer is added, and boiling water bath is performed for 5-10 min.
3.5 20 μL of protein sample is taken and 10% SDS-PAGE electrophoresis is performed.
3.6 The protein on the gel is transferred to the PVDF membrane by using a wetting transfer method with a constant current of 100 mA for 1-2.5 h.
3.7 The PVDF membrane is blocked with a blocking solution at room temperature for 2 h.
3.8 The membrane is washed for 3 times with PBST, 5 min each time. A primary antibody is added and the membrane stands at 4° C. overnight or is incubated at 37° C. for 2 h.
3.9 The membrane is washed for 3 times with PBST, 5 min each time. A secondary antibody is added and the membrane is incubated at room temperature for more than 2 h.
3.10 The membrane is exposed in a gel imager using an ECL detection kit.

TNF-α = assay: immunohistochemistry of TNF-α in ankle joints, CIA transgenic TNF-luc mice; format: in vivo, BALB/c transgenic TNF-luc mice; details: Adalimumab 8 mg/kg, mPEG-SC20k-HM-3 20 mg/kg
Procedure: (§1) Determining criteria: The experimental results are determined based on the proportion of positive cells in all tissue cells and the staining intensity of positive cells: A: scoring is performed based on the number of chromogenic cells, 1 point is given when the proportion of the number of positive cells is less than ⅓, 2 points are given when the proportion of the number of positive cells is ⅓-⅔, and 3 points are given when the proportion of the number of positive cells is greater than or equal to ⅔. B: Based on the color depth of cells, 0 point is given when no cells have positive reaction, 1 point is given when cells are light yellow, 2 points are given when the cells are light brown, and 3 points are given when the cells are dark brown. Point product=A×B. The result is expressed in point product.

IL-6 = assay: immunohistochemistry of IL-6 in spleen and thymus, CIA transgenic TNF-luc mice; format: in vivo, BALB/c transgenic TNF-luc mice; details: Adalimumab 8 mg/kg, mPEG-SC20k-HM-3 20 mg/kg
Procedure: as §1

[3] = test system: λ-carrageenan acute inflammation; assay: acute toe swelling in carrageenan-induced transgenic TNF-luc mice; format: in vivo, BALB/c transgenic TNF-luc mice; details: Adalimumab 8 mg/kg, mPEG-SC20k-HM-3 20 mg/kg sc
Procedure: Before modeling, 8 animals are randomly divided into 4 groups (n=2), a normal group, a model group, a positive drug group and a test treatment group. One hour before modeling, the normal group and the model group are hypodermically injected with normal saline (0.2 mL/20 g of body weight) respectively; the positive drug group is hypodermically injected with Adalimumab (8 mg/kg of body weight), 15 d/time, once; and the test treatment group is hypodermically injected with mPEG-SC20k-HM-3 (20 mg/kg of body weight), 2 d/time, twice. The initial ankle width, foot palm width and toe thickness of the left foot are measured as initial values.
Modeling starts at hour 0, 50 μL of 1% carrageenan is hypodermically injected into the bottom of left toe of transgenic TNF-luc mice, and the ankle swelling degree, foot palm swelling degree and toe swelling degree of each group of mice are measured with a vernier caliper at […], hour 1, hour 3, hour 5, hour 7, hour 9, hour 12, hour 24, hour 48, hour 72 and hour 96 respectively. Method for calculating toe swelling degree:
Swelling degree of left ankle (cm)=swelling thickness of left ankle during measurement−thickness of left ankle during initial measurement.
Swelling degree of left foot palm (cm)=swelling thickness of left foot palm during measurement−thickness of left foot palm during initial measurement.
Swelling degree of left toe (cm)=swelling thickness of left toe during measurement−thickness of left toe during initial measurement.

[4] = with the increase of the dosage

For Adalimumab [reference compound], the “rate of early apoptosis of macrophages” value [1] was 14.2%, the “rate of late apoptosis of macrophages” value [1] was 15.2% and the “effect on integrin pathway angiogenesis” value [2] was “no inhibitory effect”. The “immunohistochemical score of TNF-α in ankle joint cavity” value (TNF-α) was 0.160±0.109, the “immunohistochemical score of IL-6 in spleen” value (IL-6) was 0.008±0.003 and the “immunohistochemical score of IL-6 in thymus” value (IL-6) was 0.030±0.031. For the same substance, the left ankle swelling ([3]; 1 h) was 0.027 ± 0.018 cm, the “left foot (palm) swelling” value ([3]; 1 h) was 0.042 ± 0.035 cm and the left toe swelling ([3]; 1 h) was 0.094 ± 0.054 cm. The left ankle swelling ([3]; 3 h) was 0.008 ± 0.048 cm, the “left foot (palm) swelling” value ([3]; 3 h) was 0.071 ± 0.016 cm and the left toe swelling ([3]; 3 h) was 0.115 ± 0.018 cm. For the same substance, the left ankle swelling ([3]; 5 h) was 0.067 ± 0.010 cm, the “left foot (palm) swelling” value ([3]; 5 h) was 0.092 ± 0.014 cm and the left toe swelling ([3]; 5 h) was 0.150 ± 0.028 cm. For the same substance, the left ankle swelling ([3]; 7 h) was 0.064 ± 0.006 cm, the “left foot (palm) swelling” value ([3]; 7 h) was 0.094 ± 0.011 cm and the left toe swelling ([3]; 7 h) was 0.126 ± 0.014 cm. For the same substance, the left ankle swelling ([3]; 9 h) was 0.045 ± 0.004 cm, the “left foot (palm) swelling” value ([3]; 9 h) was 0.088 ± 0.025 cm and the left toe swelling ([3]; 9 h) was 0.126 ± 0.021 cm. For the same substance, the left ankle swelling ([3]; 12 h) was 0.050 ± 0.003 cm, the “left foot (palm) swelling” value ([3]; 12 h) was 0.090 ± 0.031 cm and the left toe swelling ([3]; 12 h) was 0.114 ± 0.025 cm. The left ankle swelling ([3]; 24 h) was 0.086 ± 0.031 cm, the “left foot (palm) swelling” value ([3]; 24 h) was 0.132 ± 0.006 cm and the left toe swelling ([3]; 24 h) was 0.235 ± 0.134 cm. For the same substance, the left ankle swelling ([3]; 48 h) was 0.105 ± 0.075 cm, the “left foot (palm) swelling” value ([3]; 48 h) was 0.152 ± 0.074 cm and the left toe swelling ([3]; 48 h) was 0.264 ± 0.122 cm. The left ankle swelling ([3]; 72 h) was 0.096 ± 0.051 cm, the “left foot (palm) swelling” value ([3]; 72 h) was 0.150 ± 0.066 cm and the left toe swelling ([3]; 72 h) was 0.238 ± 0.113 cm. For the same substance, the left ankle swelling ([3]; 96 h) was 0.076 ± 0.034 cm, the “left foot (palm) swelling” value ([3]; 96 h) was 0.133 ± 0.061 cm and the left toe swelling ([3]; 96 h) was 0.174 ± 0.102 cm.

With “mPEG-SC20k-Ile-Val-Arg-Arg-Ala-Asp-Arg-Ala-Ala-Val-Pro-Gly-Gly-Gly-Gly-Arg-Gly-Asp ({mPEG‑SC 20k}-IVRRADRAAVPGGGGRGD) [polypeptide III, No. 3]” the “rate of early apoptosis of macrophages” value [1] was 28.0%, the “rate of late apoptosis of macrophages” value [1] was 14.7% and the “dose with the best inhibitory effect on the expression of Integrin α5, Integrin β1, VEGFR2, HIF-1β, IL-6 proteins” value [2] was 13.5 µM. The “dose with the best inhibitory effect on the expression of TNFR1 protein” value [2] was 18 µM, the “dose with the best inhibitory effect on the expression of TNFR2, NF-κB and TNF-α proteins” value [2] was 4.5 µM and the “expression of HIF-1β and IL-6 protein in macrophages” value [2, 4] was “down-regulated”. The “expression of NF-κB protein factors in nuclei” value [2, 4] was “down-regulated”, the “expression of TNFR1 and TNFR2 protein factors in macrophages” value [2, 4] was “down-regulated” and the “expression of integrin α5, Integrin β1 and VEGFR2 proteins in macrophages” value [2, 4] was “down-regulated”. For the same substance, the “immunohistochemical score of TNF-α in ankle joint cavity” value (TNF-α) was 0.143±0.055, the “immunohistochemical score of IL-6 in spleen” value (IL-6) was 0.017±0.009 and the “immunohistochemical score of IL-6 in thymus” value (IL-6) was 0.040±0.021. For the same substance, the left ankle swelling ([3]; 1 h) was 0.060 ± 0.045 cm, the “left foot (palm) swelling” value ([3]; 1 h) was 0.101 ± 0.027 cm and the left toe swelling ([3]; 1 h) was 0.132 ± 0.054 cm. The left ankle swelling ([3]; 3 h) was 0.079 ± 0.052 cm, the “left foot (palm) swelling” value ([3]; 3 h) was 0.092±0.054 cm and the left toe swelling ([3]; 3 h) was 0.114 ± 0.025 cm. For the same substance, the left ankle swelling ([3]; 5 h) was 0.117 ± 0.033 cm, the “left foot (palm) swelling” value ([3]; 5 h) was 0.125 ± 0.035 cm and the left toe swelling ([3]; 5 h) was 0.146 ± 0.003 cm. The left ankle swelling ([3]; 7 h) was 0.074 ± 0.014 cm, the “left foot (palm) swelling” value ([3]; 7 h) was 0.116 ± 0.034 cm and the left toe swelling ([3]; 7 h) was 0.174 ± 0.065 cm. For the same substance, the left ankle swelling ([3]; 9 h) was 0.061 ± 0.013 cm, the “left foot (palm) swelling” value ([3]; 9 h) was 0.086 ± 0.008 cm and the left toe swelling ([3]; 9 h) was 0.124 ± 0.014 cm. The left ankle swelling ([3]; 12 h) was 0.055 ± 0.018 cm, the “left foot (palm) swelling” value ([3]; 12 h) was 0.091 ± 0.004 cm and the left toe swelling ([3]; 12 h) was 0.113 ± 0.027 cm. For the same substance, the left ankle swelling ([3]; 24 h) was 0.066 ± 0.003 cm, the “left foot (palm) swelling” value ([3]; 24 h) was 0.107 ± 0.010 cm and the left toe swelling ([3]; 24 h) was 0.136 ± 0.011 cm. The left ankle swelling ([3]; 48 h) was 0.051±0.044 cm, the “left foot (palm) swelling” value ([3]; 48 h) was 0.105 ± 0.010 cm and the left toe swelling ([3]; 48 h) was 0.126 ± 0.031 cm. The left ankle swelling ([3]; 72 h) was 0.032±0.074 cm, the “left foot (palm) swelling” value ([3]; 72 h) was 0.101 ± 0.016 cm and the left toe swelling ([3]; 72 h) was 0.094±0.034 cm. The left ankle swelling ([3]; 96 h) was 0.032±0.042 cm, the “left foot (palm) swelling” value ([3]; 96 h) was 0.076±0.006 cm and the left toe swelling ([3]; 96 h) was 0.084±0.040 cm.
